What all share (format): cell-based
In assay [1] the target is T1, RARα (Homo sapiens, UniProt P10276).
T1 construct: gal4 (fusion partner); expressed in transfected cells; host or cells: COS-7
T1 sequence (P10276 183-417 limits assumed): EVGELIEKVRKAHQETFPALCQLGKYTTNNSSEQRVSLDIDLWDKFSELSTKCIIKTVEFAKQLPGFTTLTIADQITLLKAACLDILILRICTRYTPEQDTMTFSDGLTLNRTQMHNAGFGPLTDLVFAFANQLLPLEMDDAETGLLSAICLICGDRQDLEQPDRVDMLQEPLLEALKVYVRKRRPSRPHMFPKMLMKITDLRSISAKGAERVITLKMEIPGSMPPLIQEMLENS
In words: Transactivation assay for RAR alpha (gal4-RAR fusion, luciferase reporter, COS-7 cells). The conditions noted are these: for RARα/RARβ ratio (*): fold-selectivity for RARα over RARβ; for RARα activity ratio: ratio of test compound EC50 to that of atRA on the same plate. The method, then:
(§1) Transcriptional transactivation assays were performed with gal4 fusion receptor constructs, created using each of the RAR ligand binding domains, co-transfected with the pFR-luc (Stratagene™) reporter construct in COS-7 cells.
(§2) Briefly, on day 1, 96 well plates were seeded with 8000 cells per well then left to recover overnight. On day 2, the cells were co-transfected with 100 ng of reporter plasmid and 10 ng of the appropriate receptor plasmid per well using lipofectamine (Invitrogen™). On day 3, the lipofectamine containing media was replaced by a DMEM without phenol red, followed by the addition of test compound dissolved in 1 μL of DMSO to each well's 100 μL total volume. Finally, on day 4, the cells were lysed and their luciferase substrate was provided by the BrightGlo™ reagent (Promega™), the plates were then read on the MicroBeta TriLux™ (Perkin Elmer™).
(§3) Where replicate data has been generated, the data are quoted as a ratio of the mean EC50 from the separate experiments.

Assay [2] deals with T2, RARγ (Homo sapiens, UniProt P13631).
T2 construct: gal4 (fusion partner); expressed in transfected cells; host or cells: COS-7
T2 sequence (P13631 185-419 limits assumed): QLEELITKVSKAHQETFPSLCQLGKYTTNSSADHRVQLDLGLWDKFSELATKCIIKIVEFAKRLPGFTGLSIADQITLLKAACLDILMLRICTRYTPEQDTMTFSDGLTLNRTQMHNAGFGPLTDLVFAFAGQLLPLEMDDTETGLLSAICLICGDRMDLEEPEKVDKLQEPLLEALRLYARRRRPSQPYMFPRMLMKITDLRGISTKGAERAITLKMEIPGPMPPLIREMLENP
In words: Transactivation assay for RAR gamma (gal4-RAR fusion, luciferase reporter, COS-7 cells). Particulars: ratio of test compound EC50 to that of atRA; inactive = no agonist action at the highest concentration tested. The procedure: as §1, §2, §3

The target in assay [3] is T3, RARβ (Homo sapiens, UniProt P10826).
T3 construct: gal4 (fusion partner); expressed in transfected cells; host or cells: COS-7
T3 sequence (P10826 183-417 limits assumed): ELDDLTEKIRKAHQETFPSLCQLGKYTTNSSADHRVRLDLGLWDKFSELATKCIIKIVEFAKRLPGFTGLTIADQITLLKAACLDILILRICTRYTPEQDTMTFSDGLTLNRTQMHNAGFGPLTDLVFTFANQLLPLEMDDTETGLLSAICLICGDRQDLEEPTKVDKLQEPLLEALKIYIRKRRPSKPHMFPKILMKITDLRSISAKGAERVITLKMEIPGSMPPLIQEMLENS
The assay can be described thus: Transactivation assay for RAR beta (gal4-RAR fusion, luciferase reporter, COS-7 cells). The conditions noted are these: ratio of test compound EC50 to that of atRA; inactive = no agonist action at the highest concentration tested. The procedure: as §1, §2, §3

Turning to `Cc1cc(NC(=O)c2cc(Cl)c(OC(C)(C)C)c(OC(C)(C)C)c2)ccc1C(=O)O` [AAA-049, 4-(3,4-Di-tert-butoxy-5-chlorobenzamido)-2-methylbenzoic acid], in assay [1], the “RARα/RARβ ratio (*)” value worked out at 13200 and the RARα activity ratio worked out at 0.64. Also, the RARγ activity ratio in assay [2] was found to be 82. Besides, in assay [3], the RARβ activity ratio came to 8460.

For the compound `Cc1cc(NC(=O)c2cc(Cl)c(OC(C)C)c(OC(C)C)c2)ccc1C(=O)O` [AAA-051, 4-(3-Chloro-4,5-diisopropoxybenzamido)-2-methylbenzoic acid], in assay [1], the “RARα/RARβ ratio (*)” value amounted to 45 and the RARα activity ratio amounted to 0.97. The RARγ activity ratio in assay [2] was 2859. Also, the RARβ activity ratio in assay [3] is 43.

As to `Cc1cc(NC(=O)c2cc(Br)c(OC(C)C)c(Br)c2)ccc1C(=O)O` [AAA-052, 4-(3,5-Dibromo-4-isopropoxybenzamido)-2-methylbenzoic acid], in assay [1], the “RARα/RARβ ratio (*)” value turned out to be 84 and the RARα activity ratio is 0.25. Besides, in assay [2], the RARγ activity ratio was found to be 1923. In addition, the RARβ activity ratio in assay [3] was 21.

On to `CCOc1c(Br)cc(C(=O)Nc2ccc(C(=O)O)c(C)c2)cc1Br` [AAA-053, 4-(3,5-Dibromo-4-ethoxybenzamido)-2-methylbenzoic acid], for which, in assay [1], the “RARα/RARβ ratio (*)” value came to 336 and the RARα activity ratio came to 4.2. Moreover, the RARγ activity ratio in assay [2] amounted to 414. Besides, the RARβ activity ratio in assay [3] was 1410.

As to `Cc1cc(NC(=O)c2cc(Cl)c(OC3CCCC3)c(Cl)c2)ccc1C(=O)O` [AAA-054, 4-(3,5-Dichloro-4-(cyclopentyloxy)benzamido)-2-methylbenzoic acid], in assay [1], the “RARα/RARβ ratio (*)” value stood at 36 and the RARα activity ratio is reported as 0.59. The RARγ activity ratio in assay [2] is reported as 51. The RARβ activity ratio in assay [3] is recorded as 21.

For `COc1c(Cl)cc(C(=O)Nc2ccc(C(=O)O)c(C)c2)cc1Cl` [AAA-055, 4-(3,5-Dichloro-4-methoxybenzamido)-2-methylbenzoic acid], in assay [1], the “RARα/RARβ ratio (*)” value was 107 and the RARα activity ratio was 18. The RARγ activity ratio in assay [2] was determined as 69000. For the same compound, the RARβ activity ratio in assay [3] is on record as 1926.

For `Cc1cc(NC(=O)c2cc(Cl)c(OC(C)(C)C)c(Cl)c2)ccc1C(=O)O` [AAA-056, 4-(4-tert-Butoxy-3,5-dichlorobenzamido)-2-methylbenzoic acid], in assay [1], the “RARα/RARβ ratio (*)” value was above 250 and the RARα activity ratio turned out to be 3.1. Further, the RARγ activity ratio in assay [2] was 22. In addition, the RARβ activity ratio in assay [3] is on record as above 770.

With `CCOc1c(Cl)cc(C(=O)Nc2ccc(C(=O)O)c(O)c2)cc1Cl` [AAA-057, 4-(3,5-Dichloro-4-ethoxybenzamido)-2-hydroxybenzoic acid], in assay [1], the “RARα/RARβ ratio (*)” value was 37 and the RARα activity ratio was 33. Further, in assay [2], the RARγ activity ratio stood at 4920. In assay [3], the RARβ activity ratio came out at 1226.

With `CCOc1c(OC2CCCC2)cc(C(=O)Nc2ccc(C(=O)O)cc2)cc1OC1CCCC1` [AAA-058, 4-(3,5-Bis(cyclopentyloxy)-4-ethoxybenzamido)benzoic acid], in assay [1], the “RARα/RARβ ratio (*)” value was 145 and the RARα activity ratio is reported as 29. Moreover, in assay [2], the RARγ activity ratio is reported as 550. Further, the RARβ activity ratio in assay [3] is reported as 4200.

As for `CC(C)Oc1cc(C(=O)Nc2ccc(C(=O)O)cc2)cc(OC(C)C)c1OC(C)C` [AAA-059, 4-(3,4,5-Triisopropoxybenzamido)benzoic acid], in assay [1], the “RARα/RARβ ratio (*)” value was 96 and the RARα activity ratio was found to be 27. Further, the RARγ activity ratio in assay [2] turned out to be 225. For the same compound, the RARβ activity ratio in assay [3] is 2600.

With `CC(C)(C)Oc1cc(C(=O)Nc2ccc(C(=O)O)cc2)cc(OC(C)(C)C)c1OC(C)(C)C` [AAA-060, 4-(3,4,5-Tri-tert-butoxybenzamido)benzoic acid], in assay [1], the “RARα/RARβ ratio (*)” value worked out at 50 and the RARα activity ratio is listed as 45. Also, the RARγ activity ratio in assay [2] turned out to be 30. Moreover, the RARβ activity ratio in assay [3] is reported as 2267.

Turning to `CCOc1c(OC(C)C)cc(C(=O)Nc2ccc(C(=O)O)c(C)c2)cc1OC(C)C` [AAA-061, 4-(4-Ethoxy-3,5-diisopropoxybenzamido)-2-methylbenzoic acid], in assay [1], the “RARα/RARβ ratio (*)” value was found to be 118 and the RARα activity ratio is 44. Further, the RARγ activity ratio in assay [2] is 1531. In addition, the RARβ activity ratio in assay [3] came out at 5200.

Turning to `COc1c(OC(C)C)cc(C(=O)Nc2ccc(C(=O)O)cc2)cc1OC(C)C` [AAA-062, 4-(3,5-Diisopropoxy-4-methoxybenzamido)benzoic acid], in assay [1], the “RARα/RARβ ratio (*)” value stood at 8 and the RARα activity ratio was determined as 85. For the same compound, the RARγ activity ratio in assay [2] is 5328. Moreover, the RARβ activity ratio in assay [3] was found to be 714.

Turning to `COc1c(OC(C)C)cc(C(=O)Nc2ccc(C(=O)O)c(C)c2)cc1OC(C)C` [AAA-063, 4-(3,5-Diisopropoxy-4-methoxybenzamido)-2-methylbenzoic acid], in assay [1], the “RARα/RARβ ratio (*)” value worked out at 22 and the RARα activity ratio is on record as 76. In addition, in assay [2], the RARγ activity ratio is recorded as 6429. The RARβ activity ratio in assay [3] came to 1686.

In the case of `CCOc1c(OC(C)C)cc(C(=O)Nc2ccc(C(=O)O)c(F)c2)cc1OC(C)C` [AAA-064, 4-(3,5-Diisopropoxy-4-ethoxybenzamido)-2-fluorobenzoic acid], in assay [1], the “RARα/RARβ ratio (*)” value is on record as above 40 and the RARα activity ratio came to 81. The RARγ activity ratio in assay [2] was found to be 1977. The RARβ activity ratio in assay [3] was above 3500.

In the case of `COc1c(Cl)cc(C(=O)Nc2ccc(C(=O)O)cn2)cc1C(F)(F)F` [AAA-065, 6-(3-Chloro-4-methoxy-5-(trifluoromethyl)benzamido)nicotinic acid], in assay [1], the “RARα/RARβ ratio (*)” value worked out at 9 and the RARα activity ratio turned out to be 15. The RARγ activity ratio in assay [2] was determined as 3521. Further, the RARβ activity ratio in assay [3] is 140.

For the compound `COc1c(Cl)cc(C(=O)Nc2ccc(C(=O)O)cc2F)cc1C(F)(F)F` [AAA-067, 4-(3-Chloro-4-methoxy-5-(trifluoromethyl)benzamido)-3-fluorobenzoic acid], in assay [1], the “RARα/RARβ ratio (*)” value came out at 6 and the RARα activity ratio turned out to be 50. Besides, in assay [2], the RARγ activity ratio was found to be 6047. For the same compound, in assay [3], the RARβ activity ratio was found to be 279.

Regarding `CCOc1c(Cl)cc(C(=O)Nc2ccc(C(=O)O)c(F)c2)cc1C(F)(F)F` [AAA-068, 4-(3-Chloro-4-ethoxy-5-(trifluoromethyl)benzamido)-2-fluorobenzoic acid], in assay [1], the “RARα/RARβ ratio (*)” value is recorded as 140 and the RARα activity ratio is on record as 7. Besides, in assay [2], the RARγ activity ratio is recorded as 60833. Also, the RARβ activity ratio in assay [3] is 976.

For the compound `CC(C)Oc1c(Cl)cc(C(=O)Nc2ccc(C(=O)O)c(F)c2)cc1C(F)(F)F` [AAA-069, 4-(3-Chloro-4-isopropoxy-5-(trifluoromethyl)benzamido)-2-fluorobenzoic acid], in assay [1], the “RARα/RARβ ratio (*)” value came out at 421 and the RARα activity ratio is listed as 1.2. Moreover, the RARγ activity ratio in assay [2] was 3380. For the same compound, the RARβ activity ratio in assay [3] is given as 505.

`COc1c(Cl)cc(C(=O)Nc2ccc(C(=O)O)c(O)c2)cc1C(F)(F)F` [AAA-070, 4-(3-Chloro-4-methoxy-5-(trifluoromethyl)benzamido)-2-hydroxybenzoic acid]: in assay [1], the “RARα/RARβ ratio (*)” value is given as 701 and the RARα activity ratio is recorded as 3.4. Besides, in assay [2], the RARγ activity ratio was above 62500. Besides, the RARβ activity ratio in assay [3] is reported as 2386.
